The source of these data is paper PMC8344761 (Journal of Enzyme Inhibition and Medicinal Chemistry, 2021).

For series [1], the target named is T1, A-Raf (Homo sapiens, UniProt P10398).
T1 sequence (P10398 1-606): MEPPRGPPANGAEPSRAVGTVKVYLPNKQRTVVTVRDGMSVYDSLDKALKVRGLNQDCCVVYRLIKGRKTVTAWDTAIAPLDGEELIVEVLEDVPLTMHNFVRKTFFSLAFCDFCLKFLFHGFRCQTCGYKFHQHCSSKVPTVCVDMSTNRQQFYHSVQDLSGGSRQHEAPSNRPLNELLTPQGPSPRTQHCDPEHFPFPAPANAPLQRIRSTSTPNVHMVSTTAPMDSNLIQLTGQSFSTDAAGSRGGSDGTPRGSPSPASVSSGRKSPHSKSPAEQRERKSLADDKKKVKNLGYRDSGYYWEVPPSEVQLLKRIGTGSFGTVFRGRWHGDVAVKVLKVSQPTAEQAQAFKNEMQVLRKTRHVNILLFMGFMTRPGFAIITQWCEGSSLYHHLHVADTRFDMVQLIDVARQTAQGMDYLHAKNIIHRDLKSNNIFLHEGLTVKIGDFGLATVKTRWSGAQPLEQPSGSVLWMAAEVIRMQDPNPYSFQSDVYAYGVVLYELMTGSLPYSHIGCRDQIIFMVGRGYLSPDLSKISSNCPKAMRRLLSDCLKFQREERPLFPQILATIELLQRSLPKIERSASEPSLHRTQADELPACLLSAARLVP
As to the kind of experiment: Raf kinase assay (Kinase HotSpot, Reaction Biology Corp.). The series is classed as biochemical. The note with it: fixed concentration 1 μM; mean of two independent experiments. As for the experimental part:
Compounds were delivered into each Raf reaction, followed ∼20 min later by addition of a mixture of ATP and [γ-^33P-ATP] (specific activity approx. 500 cpm/pmol, concentration as required) to a final concentration of 10 µM. […] Then, the reaction was spotted onto a P30 filtermat, and unbound phosphate was removed by washing three times for 5 min in 75 mM phosphoric acid and once in methanol prior to drying and scintillation counting. […] IC50 values and curve fits were obtained using Prism (GraphPad Software, La Jolla, CA).

Series [2] addresses C-Raf (Homo sapiens, UniProt P04049). The series is described as above. The class given is biochemical. The note with it: fixed concentration 1 μM; mean of two independent experiments; read-out: Inhibition (%) C-Raf. As for the experimental part:
(§1) Compounds were delivered into each Raf reaction, followed ∼20 min later by addition of a mixture of ATP and [γ-^33P-ATP] (specific activity approx. 500 cpm/pmol, concentration as required) to a final concentration of 10 µM. After incubation for 40 min at 25 °C, the reaction was stopped by the addition of a 3% phosphoric acid solution. Then, the reaction was spotted onto a P30 filtermat, and unbound phosphate was removed by washing three times for 5 min in 75 mM phosphoric acid and once in methanol prior to drying and scintillation counting. […] IC50 values and curve fits were obtained using Prism (GraphPad Software, La Jolla, CA).

In series [3] the target is B-Raf (Homo sapiens, UniProt P15056). Described as above. The class given is biochemical. The note with it: fixed concentration 1 μM; mean of two independent experiments. The protocol: as §1
Chain of B-Raf (P15056 whole entry): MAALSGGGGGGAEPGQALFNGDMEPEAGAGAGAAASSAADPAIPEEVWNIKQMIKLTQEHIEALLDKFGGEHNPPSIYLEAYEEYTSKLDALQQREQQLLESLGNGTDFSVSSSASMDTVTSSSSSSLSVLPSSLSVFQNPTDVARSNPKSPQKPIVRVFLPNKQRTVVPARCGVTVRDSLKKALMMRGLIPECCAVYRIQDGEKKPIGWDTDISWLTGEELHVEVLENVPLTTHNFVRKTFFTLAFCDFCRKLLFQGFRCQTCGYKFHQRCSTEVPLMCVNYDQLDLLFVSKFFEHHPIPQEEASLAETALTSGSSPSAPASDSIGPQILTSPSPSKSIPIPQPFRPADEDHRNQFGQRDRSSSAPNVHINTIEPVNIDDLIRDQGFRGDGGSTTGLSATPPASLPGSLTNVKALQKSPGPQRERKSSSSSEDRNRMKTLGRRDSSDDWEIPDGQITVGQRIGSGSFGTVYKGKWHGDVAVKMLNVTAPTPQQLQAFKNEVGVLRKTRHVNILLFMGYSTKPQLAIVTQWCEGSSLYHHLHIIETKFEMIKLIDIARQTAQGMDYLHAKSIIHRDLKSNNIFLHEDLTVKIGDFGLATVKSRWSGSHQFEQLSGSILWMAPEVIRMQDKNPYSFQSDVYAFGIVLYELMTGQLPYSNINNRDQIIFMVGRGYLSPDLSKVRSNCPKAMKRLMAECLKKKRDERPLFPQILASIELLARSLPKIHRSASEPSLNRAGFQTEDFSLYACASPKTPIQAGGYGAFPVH
The target in series [4] is B-Raf (V600E) (Homo sapiens, UniProt P15056, V600E). The description is as above. The note with it: fixed concentration 1 μM; mean of two independent experiments; B-Raf (V599E). The series is classed as biochemical. As for the experimental part:
as §1

A word on the melting point: it is the temperature, or range, at which the solid turns liquid. As a reminder, the inhibition is the change of the read-out against control, counted positive when it falls.

Chain of B-Raf (V600E) (P15056 whole entry V600E): as the sequence (P15056 whole entry) above, with V600E counted along it
Chain of C-Raf (P04049 whole entry): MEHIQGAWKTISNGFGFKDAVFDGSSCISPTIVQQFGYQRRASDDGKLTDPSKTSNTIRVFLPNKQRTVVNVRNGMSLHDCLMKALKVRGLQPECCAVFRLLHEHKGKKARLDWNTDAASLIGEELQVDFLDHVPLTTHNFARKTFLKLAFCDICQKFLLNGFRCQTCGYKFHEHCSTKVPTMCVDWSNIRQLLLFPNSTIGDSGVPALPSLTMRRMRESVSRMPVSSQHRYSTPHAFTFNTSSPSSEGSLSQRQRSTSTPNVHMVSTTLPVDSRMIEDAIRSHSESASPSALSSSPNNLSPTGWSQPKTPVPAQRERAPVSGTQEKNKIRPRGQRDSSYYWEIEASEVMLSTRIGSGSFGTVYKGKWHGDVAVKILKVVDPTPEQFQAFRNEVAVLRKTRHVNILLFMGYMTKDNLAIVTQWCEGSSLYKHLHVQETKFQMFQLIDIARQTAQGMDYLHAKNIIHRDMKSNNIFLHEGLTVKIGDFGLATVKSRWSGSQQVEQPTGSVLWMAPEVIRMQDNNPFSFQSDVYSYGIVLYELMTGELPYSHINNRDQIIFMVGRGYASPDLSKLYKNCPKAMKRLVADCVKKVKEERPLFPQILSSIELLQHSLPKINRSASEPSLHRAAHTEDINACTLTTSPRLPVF

As for `CNC(=O)c1cc(Oc2c(C)nc(N)c(C)c2C)ccn1` [Compound 3, 4-((6-Amino-2,4,5-trimethylpyridin-3-yl)oxy)-N-methylpicolinamide], the melting point amounted to 193 °C. Besides, the inhibition at 1 µM in series [1] was determined as 17.6%. The inhibition at 1 µM in series [2] is 0%. In series [3], the inhibition at 1 µM is -15.4%. Also, the inhibition at 1 µM in series [4] is 9.4%.
`CNC(=O)c1cc(Oc2c(C)nc(NC(=O)Nc3ccc(Cl)cc3)c(C)c2C)ccn1` [Compound 5, 4-((6–(3-(4-Chlorophenyl)ureido)-2,4,5-trimethylpyridin-3-yl)oxy)-N-methylpicolinamide] gave a melting point of 248 °C. Besides, the inhibition at 1 µM in series [1] was found to be 70.2%. For the same compound, in series [2], the inhibition at 1 µM was 83.1%. In series [3], the inhibition at 1 µM turned out to be 63%. Moreover, the inhibition at 1 µM in series [4] turned out to be 69.4%.
Taken in the same sequence, the figures for `CNC(=O)c1cc(Oc2c(C)nc(NC(=O)Nc3ccccc3)c(C)c2C)ccn1` [Compound 7, N-Methyl-4-((2,4,5-trimethyl-6-(3-phenylureido)pyridin-3-yl)oxy)picolinamide] were 229 °C, 49.3%, 46.4%, 24.8% and 48%.
In the case of `CNC(=O)c1cc(Oc2c(C)nc(NC(=O)Nc3ccc(F)cc3)c(C)c2C)ccn1` [Compound 8, 4-((6-(3-(4-Fluorophenyl)ureido)-2,4,5-trimethylpyridin-3-yl)oxy)-N-methylpicolinamide], the melting point was 253 °C. Moreover, the inhibition at 1 µM in series [1] was 78.4%. In series [2], the inhibition at 1 µM came to 78.2%. Further, the inhibition at 1 µM in series [3] worked out at 61.5%. Also, the inhibition at 1 µM in series [4] came to 77.9%.
Taken in the same sequence, the figures for `CNC(=O)c1cc(Oc2c(C)nc(NC(=O)Nc3ccc(Br)cc3)c(C)c2C)ccn1` [Compound 9, 4-((6–(3-(4-Bromophenyl)ureido)-2,4,5-trimethylpyridin-3-yl)oxy)-N-methylpicolinamide] were 268 °C, 49.9%, 74.6%, 40.8% and 58.9%.
For `CNC(=O)c1cc(Oc2c(C)nc(NC(=O)Nc3ccc([N+](=O)[O-])cc3)c(C)c2C)ccn1` [Compound 10, N-Methyl-4-((2,4,5-trimethyl-6-(3-(4-nitrophenyl)ureido)pyridin-3-yl)oxy)picolinamide], in that order: 262 °C, 61.5%, 83.1%, 60.4% and 74.7%.
`CNC(=O)c1cc(Oc2c(C)nc(NC(=O)Nc3ccc(C(F)(F)F)cc3)c(C)c2C)ccn1` [Compound 11, N-Methyl-4-((2,4,5-trimethyl-6-(3-(4-(trifluoromethyl)phenyl)ureido)pyridin-3-yl)oxy)picolinamide] displayed a melting point of 254 °C. In series [1], the inhibition at 1 µM was 66.3%. Moreover, the inhibition at 1 µM in series [2] was 90.4%. Further, the inhibition at 1 µM in series [3] worked out at 66.8%. The inhibition at 1 µM in series [4] amounted to 71.9%.
The compound `CNC(=O)c1cc(Oc2c(C)nc(NC(=O)Nc3ccc(OC(F)(F)F)cc3)c(C)c2C)ccn1` [Compound 12, N-Methyl-4-((2,4,5-trimethyl-6-(3-(4-(trifluoromethoxy)phenyl)ureido)pyridin-3-yl)oxy)picolinamide] yielded a melting point of 185 °C. In addition, the inhibition at 1 µM in series [1] was 12.4%. The inhibition at 1 µM in series [2] is 37.5%. Also, the inhibition at 1 µM in series [3] worked out at 6.6%. In series [4], the inhibition at 1 µM was 22.2%.
For `CNC(=O)c1cc(Oc2c(C)nc(NC(=O)Nc3ccc(OC)cc3)c(C)c2C)ccn1` [Compound 13, 4-((6-(3-(4-Methoxyphenyl)ureido)-2,4,5-trimethylpyridin-3-yl)oxy)-N-methylpicolinamide], in that order: 258 °C, 14.7%, 55.9%, 5.1% and 33.4%.
`CNC(=O)c1cc(Oc2c(C)nc(NC(=O)Nc3ccc(C)cc3)c(C)c2C)ccn1` [Compound 14, N-Methyl-4-((2,4,5-trimethyl-6-(3-(p-tolyl)ureido)pyridin-3-yl)oxy)picolinamide]: the melting point turned out to be 247 °C. Besides, in series [1], the inhibition at 1 µM was 51%. The inhibition at 1 µM in series [2] stood at 73.6%. Moreover, the inhibition at 1 µM in series [3] stood at 44.5%. Also, the inhibition at 1 µM in series [4] turned out to be 62.2%.
Turning to `CNC(=O)c1cc(Oc2c(C)nc(NC(=O)Nc3ccc(C(C)C)cc3)c(C)c2C)ccn1` [Compound 15, 4-((6-(3-(4-Isopropylphenyl)ureido)-2,4,5-trimethylpyridin-3-yl)oxy)-N-methylpicolinamide], the melting point turned out to be 188 °C. In series [1], the inhibition at 1 µM was 33.6%. Besides, in series [2], the inhibition at 1 µM is 76.1%. Further, the inhibition at 1 µM in series [3] was 43.2%. In addition, in series [4], the inhibition at 1 µM was 39%.
Taken in the same sequence, the figures for `CNC(=O)c1cc(Oc2c(C)nc(NC(=O)Nc3c(C)cccc3C(C)(C)C)c(C)c2C)ccn1` [Compound 16, 4-((6-(3-(2-(Tert-Butyl)-6-methylphenyl)ureido)-2,4,5-trimethylpyridin-3-yl)oxy)-N-methylpicolinamide] were 206 °C, 8.6%, -6.4%, -7.1% and 7.1%.
The compound `CNC(=O)c1cc(Oc2c(C)nc(NC(=O)Nc3cccc4ccccc34)c(C)c2C)ccn1` [Compound 17, N-Methyl-4-((2,4,5-trimethyl-6-(3-(naphthalen-1-yl)ureido)pyridin-3-yl)oxy)picolinamide] gave a melting point of 266 °C. Also, the inhibition at 1 µM in series [1] came out at 10.2%. Besides, the inhibition at 1 µM in series [2] stood at 7.1%. For the same compound, the inhibition at 1 µM in series [3] was -6.8%. Further, the inhibition at 1 µM in series [4] was 10.1%.
The compound `CNC(=O)c1cc(Oc2c(C)nc(NC(=O)NCc3ccccc3)c(C)c2C)ccn1` [Compound 18, 4-((6-(3-Benzylureido)-2,4,5-trimethylpyridin-3-yl)oxy)-N-methylpicolinamide] yielded a melting point of 195 °C. Also, the inhibition at 1 µM in series [1] was 7.8%. Further, in series [3], the inhibition at 1 µM was -14.5%. Moreover, the inhibition at 1 µM in series [4] is 13.3%.
`CCCNC(=O)Nc1nc(C)c(Oc2ccnc(C(=O)NC)c2)c(C)c1C` [Compound 19, N-Methyl-4-((2,4,5-trimethyl-6-(3-propylureido)pyridin-3-yl)oxy)picolinamide]: the melting point is 207 °C. Also, the inhibition at 1 µM in series [1] is -5.1%. Also, in series [2], the inhibition at 1 µM was 1.7%. The inhibition at 1 µM in series [3] is -9.2%.
As to `CNC(=O)c1cc(Oc2c(C)nc(NC(=O)NC3CC3)c(C)c2C)ccn1` [Compound 20, 4-((6-(3-Cyclopropylureido)-2,4,5-trimethylpyridin-3-yl)oxy)-N-methylpicolinamide], the melting point amounted to 192 °C. For the same compound, in series [1], the inhibition at 1 µM came to 16.4%. The inhibition at 1 µM in series [2] was -0.8%. The inhibition at 1 µM in series [3] was -10%. Further, in series [4], the inhibition at 1 µM was found to be 8.9%.
With `CNC(=O)c1cc(Oc2c(C)nc(NC(=O)NS(=O)(=O)c3ccc(C)cc3)c(C)c2C)ccn1` [Compound 22, N-Methyl-4-((2,4,5-trimethyl-6-(3-tosylureido)pyridin-3-yl)oxy)picolinamide], the melting point stood at 187 °C. Further, in series [1], the inhibition at 1 µM worked out at 9.4%. Also, the inhibition at 1 µM in series [2] was 5.7%. Further, the inhibition at 1 µM in series [4] was found to be 2.6%.
For `Cc1nc(NC(=O)Nc2ccc(Cl)c(C(F)(F)F)c2)c(C)c(C)c1O` [Compound 25, 1-(4-Chloro-3-(trifluoromethyl)phenyl)-3-(5-hydroxy-3,4,6-trimethylpyridin-2-yl)urea], in that order: 242 °C, 7.9%, -7.7% and 8.7%.
